Reference: patent US10501493B2, “Broad spectrum antibiotics” (priority 2011, dated 2019)
In brackets after ≈: the same amount, converted by molar mass. Like-named read-outs stand apart in the source and are kept apart here.

Key:
[1] = test system: S. epidermidis RP62A SpsIB(S31P); assay: In vitro antimicrobial activity, MIC by broth micro-dilution; type: cell-based
[2] = test system: R. equi DSM 6939; assay: as above; type: cell-based
How it was run: (§1)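 CLSI broth micro-dilution MIC against two-fold serial compound dilutions. Inoculum came from colonies grown 24 h at 35° C. or 28° C., suspended in cation-adjusted Mueller Hinton broth at 1*10^7 CFU/ml, of which 5 μl was added per 100 μl well. LepB(P84L) is a proline-mutant SPase strain with heightened arylomycin susceptibility.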

[3] = test system: S. agalactiae COH-1; assay: as above; type: cell-based; conditions: S. agalactiae COH-1
[4] = test system: S. epidermidis ATCC 12228; assay: as above; type: cell-based
[5] = test system: S. aureus ATCC 29213; assay: as above; type: cell-based
[6] = test system: P. aeruginosa PA01; assay: as above; type: cell-based
How it was run: as §1

[7] = test system: S. pyogenes ATCC 19615; assay: as above; type: cell-based
[8] = test system: S. pyogenes M15448; assay: as above; type: cell-based; conditions: S. pyogenes M15448
How it was run: as §1

[9] = test system: S. pneumoniae R800; assay: as above; type: cell-based
How it was run: as §1

[10] = test system: S. pneumoniae D39; assay: as above; type: cell-based; conditions: S. pneumoniae D39
[11] = test system: S. aureus NCTC-8325 SpsB(P295); assay: as above; type: cell-based
[12] = test system: S. agalactiae ATCC 13813; assay: as above; type: cell-based
[13] = test system: S. epidermidis RP62A; assay: as above; type: cell-based; conditions: S. epidermidis RP62A
[14] = test system: E. coli MIG1655 LepB(P84L); assay: as above; type: cell-based
How it was run: as §1

[15] = test system: P. aeruginosa PA01 LepB(P84L); assay: as above; type: cell-based
How it was run: as §1

[16] = test system: E. coli MIG1655; assay: as above; type: cell-based
How it was run: as §1

[17] = test system: C. glutamicum DSM 44475; assay: as above; type: cell-based
[18] = test system: S. epidermidis RP62A SpsIB(S29P); assay: as above; type: cell-based
[19] = molecular target: T1, E. coli SPase (Escherichia coli, UniProt P00803); assay: Steady state binding constant (Kd) determination by fluorescence increase
T1 construct: Full length His-tagged E. coli SPase proteins were expressed in E. coli BL21(DE3); His-tag; made in house; host or cells: E. coli BL21(DE3)
Experimental: (§2) Full length His-tagged E. coli SPase proteins were expressed in E. coli BL21(DE3) containing the plasmid pET23-lepB, P. A. Smith et al. Chem Biol 2010, 1223-1231. Briefly, saturated overnight cultures grown in 20 ml of Luria-Bertani medium supplemented with ampicillin were subcultures into 1.5 L of Luria-Bertani, and shaken at 37° C. until an optical density at 600 nm of 0.4-0.5 was achieved. Protein expression was induced with Isopropyl β-D-1-thiogalactopyranoside (ITPG) at a final concentration of […], and purified using nickel affinity chromatography. Full length His-tagged S. aureus SPase protein was expressed similarly from E. coli BL21(DE3) containing the plasmid pCDF1-SaSpsB or pCDF1-SaSpsB(P29S) and purified similarly to the E. coli protein with the following exceptions. SPase protein was solubilized using 300 mM NaCl, 20 mM Tris pH 8.06, 5 mM Imidazole, 10% glycerol, 1% Triton X-100, prior to purification in Ni-NTA Superflow resin and resin bound protein was washed in a similar buffer containing 1% Elugent in place of Triton X-100 prior to protein eluted in wash buffer supplemented with 300 mM imidazole. Protein purify was judged to exceed 95% by visual inspection of SDS-PAGE followed by Comassie staining. All protein concentrations were determined by BCA assay.
(§3) Steady state binding constants (Kds) of compounds were determined by measuring an increase in fluorescence (λex=280 nm, λem=405 nm) that occurs upon binding to E. coli or S. aureus SPase protein. Two-fold serial dilutions of compounds were prepared in 100% DMSO, and compounds were diluted into binding buffer consisting of 100 mM NaCl, 20 mM Tris-HCl pH 7.4, 1 mM EDTA, 1% n-octyl-3-glucopyranoside (Anatrace), and 10% glycerol, with the final DMSO concentration equal to 1%. 70 μl of the resulting solutions containing various concentrations of compound in binding buffer were aliquoted into triplicate wells of a black polystyrene 384-well plate. 5 μl of blank solution or E. coli or S. aureus protein at concentrations of 750 or 3750 nM respectively, were added to each set of wells for a given inhibitor concentration. Plates were incubated for 14 hours and fluorescence read on an EnVision Multilable plate reader (Perkin Elmer™). Differences in fluorescence values between wells with and without protein were determined and background corrected for protein auto fluorescence. The corrected fluorescence difference data was fit to the quadratic equilibrium binding curve using the non-linear regression analysis software Solver (Frontline Systems®) run in Excel 2010, (Microsoft®), using experimentally determined quantum efficiency constants to convert fluorescence into nanomoles of protein/compound complex.

[20] = molecular target: T2, S. aureus SPase (Staphylococcus aureus, UniProt P0A070); assay: as above
T2 construct: Full length His-tagged S. aureus SPase protein was expressed similarly; His-tag; made in house; host or cells: E. coli BL21(DE3)
Experimental: as §2, §3

[21] = S. epidermidis RP62A SpsIB(S31P)
[22] = S. epidermidis RP62A SpsIB(S29P)
[23] = Rhodococcus (subgen. Prescottella) equi, DSM6939, read-out: MIC
[24] = Streptococcus agalactiae, COH1, read-out: MIC
[25] = Staphylococcus epidermidis, ATCC12228, read-out: MIC
[26] = Staphylococcus aureus, ATCC29213, read-out: MIC
[27] = Pseudomonas aeruginosa, read-out: MIC
[28] = Streptococcus pyogenes, ATCC19615, read-out: MIC
[29] = Streptococcus pyogenes, read-out: MIC
[30] = Streptococcus pneumoniae, read-out: MIC
[31] = Staphylococcus aureus, NCTC8325
[32] = Streptococcus agalactiae, ATCC13813, read-out: MIC
[33] = Staphylococcus epidermidis, read-out: MIC
[34] = Corynebacterium glutamicum, DSM44475, read-out: MIC

Compound | MIC [1, 21] | MIC [2] | MIC [3] | MIC [4] | MIC ([1]; Staphylococcus epidermidis) | MIC [2, 23] | MIC [3, 24] | MIC [4, 25] | MIC [5, 26] | MIC [7, 28] | MIC [8, 29] | MIC [9, 30] | MIC [10, 30] | MIC [11, 31] | MIC [12, 32] | MIC [13, 33] | MIC ([14]; Escherichia coli) | MIC ([15]; Pseudomonas aeruginosa) | MIC [17, 34] | MIC ([18]; Staphylococcus epidermidis) | other results
CCCCCCCCCCCCCCCC(=O)N[C@H](CC(N)=O)C(=O)N[C@H](C)C(=O)NCC(=O)N(C)[C@@H]1C(=O)N[C@@H](C)C(=O)N[C@H](C(=O)O)Cc2ccc(O)c(c2)-c2cc1ccc2O [Compound 34] | >64 µg/mL | >64 µg/mL | >64 µg/mL | >64 µg/mL | – | – | – | – | – | – | – | – | – | – | – | – | – | – | – | – | MIC [5]: >64 µg/mL; MIC [6]: >64 µg/mL; MIC [7]: >64 µg/mL; MIC [8]: >64 µg/mL; MIC [9]: >64 µg/mL; MIC [10]: >64 µg/mL; MIC ([11]; S. aureus NCTC-8325 SpsB(P295)): >64 µg/mL; MIC [12]: >64 µg/mL; MIC [13]: >64 µg/mL; MIC ([14]; E. coli MIG1655 LepB(P84L)): >64 µg/mL; MIC ([15]; P. aeruginosa PA01 LepB(P84L)): >64 µg/mL; MIC ([16]; E. coli MIG1655): >64 µg/mL; MIC [17]: >64 µg/mL; MIC [18, 22]: >64 µg/mL
CCCCCCCCCCCCCCCC(=O)N(C)[C@H](CO)C(=O)N[C@H](C)C(=O)NCC(=O)N(C)[C@@H]1C(=O)N[C@@H](C)C(=O)N[C@H](C(=O)NC(C)C=O)Cc2ccc(O)c(c2)-c2cc1ccc2O (some centres unmarked) [Compound 33] | – | – | – | – | 64 µg/mL (≈ 68.4 µM) | 64 µg/mL (≈ 68.4 µM) | 64 µg/mL (≈ 68.4 µM) | > 64 µg/mL | > 64 µg/mL | 16 µg/mL (≈ 17.1 µM) | 16 µg/mL (≈ 17.1 µM) | 32 µg/mL (≈ 34.2 µM) | 32 µg/mL (≈ 34.2 µM) | 64 µg/mL (≈ 68.4 µM) | > 64 µg/mL | 64 µg/mL (≈ 68.4 µM) | 64 µg/mL (≈ 68.4 µM) | > 64 µg/mL | 64 µg/mL (≈ 68.4 µM) | 64 µg/mL (≈ 68.4 µM) | MIC [6, 27]: > 64 µg/mL; MIC ([16]; Escherichia coli, MIG1655): > 64 µg/mL
CCCCCCCCCCCCCCCC(=O)N(C)[C@H](CO)C(=O)N[C@H](C)C(=O)NCC(=O)N(C)[C@@H]1C(=O)N[C@@H](C)C(=O)N[C@H](C(=O)NCC(=O)O)Cc2ccc(O)c(c2)-c2cc1ccc2O [Compound 24] | – | – | – | – | > 64 µg/mL | > 64 µg/mL | > 64 µg/mL | 32 µg/mL (≈ 34.1 µM) | > 64 µg/mL | 8 µg/mL (≈ 8.53 µM) | 16 µg/mL (≈ 17.1 µM) | 8 µg/mL (≈ 8.53 µM) | 4 µg/mL (≈ 4.26 µM) | 32 µg/mL (≈ 34.1 µM) | 64 µg/mL (≈ 68.2 µM) | 2 µg/mL (≈ 2.13 µM) | 4 µg/mL (≈ 4.26 µM) | 32 µg/mL (≈ 34.1 µM) | 64 µg/mL (≈ 68.2 µM) | > 64 µg/mL | Kd [19]: 1100 nM; Kd [20]: 2900 nM
CCCCCCCCCCCCCCCC(=O)N(C)[C@H](CO)C(=O)N[C@H](C)C(=O)NCC(=O)N(C)[C@@H]1C(=O)N[C@@H](C)C(=O)N[C@H](C(=O)O)Cc2ccc(O)c(c2)-c2cc1ccc2O [Compound 1, arylomycin C16] | – | – | – | – | > 64 µg/mL | 16 µg/mL (≈ 18.2 µM) | > 64 µg/mL | 2 µg/mL (≈ 2.27 µM) | > 64 µg/mL | 16 µg/mL (≈ 18.2 µM) | 16 µg/mL (≈ 18.2 µM) | 8 µg/mL (≈ 9.08 µM) | 4 µg/mL (≈ 4.54 µM) | 4 µg/mL (≈ 4.54 µM) | 16 µg/mL (≈ 18.2 µM) | 0.3 µg/mL (≈ 0.34 µM) | 1 µg/mL (≈ 1.13 µM) | 8 µg/mL (≈ 9.08 µM) | 8 µg/mL (≈ 9.08 µM) | 8 µg/mL (≈ 9.08 µM) | MIC [6, 27]: > 64 µg/mL; MIC ([16]; Escherichia coli, MIG1655): > 64 µg/mL; Kd [19]: 75 nM; Kd [20]: 750 nM
CCCCCCCCCCCCCCCC(=O)N(C)[C@H](CO)C(=O)N[C@H](C)C(=O)NCC(=O)N(C)[C@@H]1C(=O)N[C@@H](C)C(=O)N[C@H](C(=O)N[C@@H](C)C(=O)NS(C)(=O)=O)Cc2ccc(O)c(c2)-c2cc1ccc2O [Compound 23] | >64 µg/mL | >64 µg/mL | >64 µg/mL | 8 µg/mL (≈ 7.77 µM) | – | – | – | – | – | – | – | – | – | – | – | – | – | – | – | – | MIC [5]: >64 µg/mL; MIC [7]: 16 µg/mL (≈ 15.5 µM); MIC [8]: 16 µg/mL (≈ 15.5 µM); MIC [9]: 8 µg/mL (≈ 7.77 µM); MIC [10]: 8 µg/mL (≈ 7.77 µM); MIC ([11]; S. aureus NCTC-8325 SpsB(P295)): 8 µg/mL (≈ 7.77 µM); MIC [12]: 32 µg/mL (≈ 31.1 µM); MIC [13]: 2 µg/mL (≈ 1.94 µM); MIC ([14]; E. coli MIG1655 LepB(P84L)): 8 µg/mL (≈ 7.77 µM); MIC ([15]; P. aeruginosa PA01 LepB(P84L)): >64 µg/mL; MIC [17]: 8 µg/mL (≈ 7.77 µM); MIC [18, 22]: 16 µg/mL (≈ 15.5 µM); Kd ([19]; in vitro equilibrium Kd, read-out: Kd E. coli SPase): 3000 nM; Kd ([20]; in vitro equilibrium Kd, read-out: Kd S. aureus SPase): 8900 nM
